Results from patent US6365570B1, “Pharmaceutical and diagnostic use of Serum Amyloid P component” (priority 1999, dated 2002).
Entries after “also recorded” stand apart in the source; their conditions may differ.

What was measured:
[1] = molecular target: binding of LPS to monocytes; test: Inhibition of FITC-LPS binding to monocytes (flow cytometry); type: cell-based, human; conditions: for IC50: FITC-LPS 2.5 ng/ml, 30 ng/ml recombinant LBP, mononuclear cells of healthy volunteers, 30 minutes at 37° C., read-out: 50% inhibition concentration; for inhibition of binding of LPS to monocytes (in words): FITC-LPS binding to monocytes in vitro, FIG. 2 / FIG. 4
Experimental: 2.1 Materials and method LPS of Salmonella Re595 (ReLPS, supra) is labelled with FITC (Sigma; F7250) under conditions in which LPS is present as monomer, resulting in a FITC-LPS preparation with a ratio of 1 molecule FITC per molecule PLS. After extension desalting and dialysis against PBS, the stock solution of FITC-LPS is stored at −20° C. Mononuclear leukocytes (monocytes and lymphocytes) are isolated from heparin blood of healthy volunteers via a Ficol (Pharmacial) gradient in accordance with a standard method. After washing the cells are resuspended in isotonic HEPES buffer (with 1 mM CalCl2 and 2% BSA). Preparations with SAP are mixed with FITC-LPS and subsequently added to 3×10^5 mononuclear cells and 30 ng/ml recombinant LSP (obtained from Dr. Lichtenstein) in a total volume of 50 μl and a FITC-LPS concentration of 2.5 ng/ml. After an incubating period of 30 minutes at 37° C., the samples are stored on ice. Analysis of monocyte-associated FITC-LPS binding takes place with PAC Scan™ Flow cytometer. Forward and Sideward Scatter parameters are used to identify the monocyte population. With LysisII™ software (Beckton & Dickinson) the average fluorescence value of 5000 monocytes is calculated. See also Weersing A. J. L. et al., J. Immunol. 145, 318-324 (1990)).
3.1 Materials and method The test was performed in the same manner as described in example 2. However, SAP fragments (peptides) were used instead of SAP. The amino acid composition of the tested peptides is shown in table 2, as well as the concentration at which 50% inhibition occurs.

LPS of Salmonella Re595 = test: Binding to LPS-Beads, SDS-PAGE analysis; conditions: FIG. 1A and 1B, serum pre-incubated with free ReLPS
Experimental: 1.1 Materials and method A 1 mg/ml solution of LPS of Salmonella Re595 (Sigma; L9764) in carbonate buffer (0.1 M, pH 9.5) is incubated for 24 hours with 5×10^7 DynaBeads™ (M450, Dynal A. S., Oslo, Norway) activated with Tosyl. The beads loaded with LPS are washed 3x and stored in HBSS+0.1% Na-azide (5×10^7 b/ml). A 10% dilution (1 to 10 dilution) of serum of healthy volunteers is mixed with 5×10^6 LPS-Beads for 30 minutes at 22° C. The serum has optionally been incubated before hand with different concentrations of free LPS. The beads are washed 3x with HBSS (Gibco BRL, Gaithersburg, Md., US) and subsequently resuspended in 25 μl SDS-PAGE sample buffer (with 2% SDS and 2.5% DTT). After boiling for 3 minutes at 100° C. the sample is analyzed on a 12.5% SDS-PAGE (Mini-ProteanII; Bio-Rad). The proteins present are stained with Coomassie Blue. A sample with Marker proteins of known sizes (Bio-Rad) serves as reference. For identification the proteins are transferred after SDS-PAGE to nitrocellulose paper by means of a Mini Trans-Blotter™. The proteins are stained with Coomassie Blue, and the protein around 30 kDa is […] and dissolved in buffer. The sequence of this sample is determined. SAP is isolated from normal human serum by making use of the Ca-dependent binding to Sepharose. […]

[2] = test system: LPS priming of neutrophils; test: Inhibition of LPS priming of neutrophils (fMLP/luminol luminescence); type: cell-based, human; conditions: 1 ng/ml ReLPS, 30 ng/ml r-LBP, 30 minutes at 37° C., fMLP stimulus, FIG. 3
From the text: 4.1 Materials and method Neutrophils are isolated from heparin blood of healthy volunteers via a Histopaque-Picoll gradient in accordance with a standard method (Van Amerafoort, E. S. & J. A. G. van Strijp, Cytometry 17, 294-301 (1994). The remaining erythrocytes in the neutrophil fraction are lysed with sterile water (for 30 seconds) and, after reinstatement of the isotonicity, the fraction is washed. The cells are finally inserted (suspended) in HGSS+2% Human Serum Albumin (HSA). Cells (1×10^4) are incubated with 1 ng/ml ReLPS, 30 ng/ml recombinant LPS-binding protein (r-LPS) and a sample SAP in a total volume of 100 μl for 30 minutes at 37° C. The samples are subsequently placed in a luminometer (Berthold; Autolumat LB953), whereafter via automatic injection luminol (180 μM) and 1 μM fMLP (formylmethyonyl-leucyl-phenylalanine) are added as stimulus to each tube. The luminescence response is measured continuously for 15 minutes and the results expressed as total luminescence response (area under the graph). See also Weersink et al., Immunology 83, 617-623 (1994).

Row | Substance | IC50 [1] [µM] | inhibition of binding of LPS to monocytes (in words) [1] | binding to LPS-Beads / free LPS (LPS of Salmonella Re595) | activation (priming) of neutrophils by LPS [2]
1 | SAP fragment, amino acids 27-34: Glu Lys Pro Leu Gln Asn Phe Thr, SEQ ID NO 8 (EKPLQNFT; Fragment of the Serum Amyloid P component, peptide 27-34) [PEP 27-34] | > 106 | – | – | –
2 | SAP fragment, amino acids 27-39: Glu Lys Pro Leu Gln Asn Phe Thr Leu Cys Phe Arg Ala, SEQ ID NO 1 (EKPLQNFTLCFRA; Fragment of the Serum Amyloid P component, peptides 27-39; listed as Homo sapiens) [PEP 27-39] | 0.1 | very good activity | – | –
3 | SAP fragment, amino acids 28-35: Lys Pro Leu Gln Asn Phe Thr Leu, SEQ ID NO 7 (KPLQNFTL; Fragment of the Serum Amyloid P component, peptide 28-35) [PEP 28-35] | > 100 | – | – | –
4 | SAP fragment, amino acids 29-36: Pro Leu Gln Asn Phe Thr Leu Cys, SEQ ID NO 5 (PLQNFTLC; Fragment of the Serum Amyloid P component, peptide 29-36) [PEP 29-36] | 6.5 | acceptable activity | – | –
5 | SAP fragment, amino acids 30-37: Leu Gln Asn Phe Thr Leu Cys Phe, SEQ ID NO 4 (LQNFTLCF; Fragment of the Serum Amyloid P component, peptide 30-37) [PEP 30-37] | 4.5 | acceptable activity | – | –
6 | SAP fragment, amino acids 32-39: Asn Phe Thr Leu Cys Phe Arg Ala, SEQ ID NO 3 (NFTLCFRA; Fragment of the Serum Amyloid P component, peptides 32-39) [PEP 32-39] | 2 | acceptable activity | – | –
7 | SAP fragment, amino acids 33-38: Phe Thr Leu Cys Phe Arg, SEQ ID NO 2 (FTLCFR; Fragment of the Serum Amyloid P component, peptides 33-38) [PEP 33-38] | – | acceptable activity | – | –
8 | Serum Amyloid P component [SAP] | 0.05 | concentration-dependent inhibition | capable of binding with free LPS; also recorded: binds to the LPS-Beads | greatly reduced
